Measured values from patent US11912693B2, “Compounds for modulating S1P1 activity and methods of using the same” (TREVENA, INC., priority 2017, dated 2024).

Legend:
[1] = target: T1, human sphingosine-1-phosphate receptor 1 (S1P1) (Homo sapiens (Human), UniProt P21453); assay: Inhibition of cAMP production (HTRF cAMP HiRange), S1P1 CHO-K1 cells; format: cell-based; details: for Emax: CHO-K1, efficacy (SPAN) normalized to fingolimod, read-out: hS1P1 cAMP SPAN; for hS1P1 cAMP pEC50: inhibition of cAMP production, S1P1 CHO-K1 cells
Method in brief: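 CHO-K1 cells stably co-expressing human S1P1 (C-terminal Prolink tag) and EA-β-arrestin2 were grown in AssayComplete Media 6 at 37° C. and 5% CO2, plated, and incubated overnight. Agonist-driven inhibition of intracellular cAMP was read by TR-FRET with the HTRF cAMP HiRange kit on a PheraStar reader. Potency is pEC50, and efficacy (SPAN) is normalized to fingolimod.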
Target sequence in this assay (P21453 whole entry, looked up): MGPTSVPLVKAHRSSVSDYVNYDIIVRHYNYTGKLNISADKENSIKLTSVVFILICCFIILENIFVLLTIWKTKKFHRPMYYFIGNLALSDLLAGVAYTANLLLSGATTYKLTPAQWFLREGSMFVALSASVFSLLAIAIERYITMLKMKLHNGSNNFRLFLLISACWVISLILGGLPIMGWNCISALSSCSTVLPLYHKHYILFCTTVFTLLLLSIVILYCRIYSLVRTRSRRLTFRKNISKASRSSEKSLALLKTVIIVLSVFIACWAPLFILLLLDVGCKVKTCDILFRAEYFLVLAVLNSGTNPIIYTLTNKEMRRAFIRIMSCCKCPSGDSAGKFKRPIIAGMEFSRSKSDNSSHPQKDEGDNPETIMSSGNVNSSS

[2] = target: T1, human sphingosine-1-phosphate receptor 1 (S1P1); assay: β-Arrestin2 recruitment assay (PathHunter), S1P1 CHO-K1 cells; format: cell-based; details: for Emax: CHO-K1, efficacy (SPAN) normalized to fingolimod, read-out: hS1P1 B-arrestin2 SPAN; for hS1P1 B-arrestin2 pEC50: β-arrestin2 recruitment, S1P1 CHO-K1 cells
Method in brief: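 Enzyme-fragment complementation read-out: agonist-driven β-arrestin2 binding to ProLink-tagged human S1P1 in stable CHO-K1 cells restores β-galactosidase, measured 1 h at room temperature after a 60 min 37° C. compound incubation. Potency as pEC50, efficacy relative to fingolimod (SPAN).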
Target sequence in this assay (P21453 whole entry, looked up): as above
Target sequence in this assay (P32121 whole entry partner, looked up): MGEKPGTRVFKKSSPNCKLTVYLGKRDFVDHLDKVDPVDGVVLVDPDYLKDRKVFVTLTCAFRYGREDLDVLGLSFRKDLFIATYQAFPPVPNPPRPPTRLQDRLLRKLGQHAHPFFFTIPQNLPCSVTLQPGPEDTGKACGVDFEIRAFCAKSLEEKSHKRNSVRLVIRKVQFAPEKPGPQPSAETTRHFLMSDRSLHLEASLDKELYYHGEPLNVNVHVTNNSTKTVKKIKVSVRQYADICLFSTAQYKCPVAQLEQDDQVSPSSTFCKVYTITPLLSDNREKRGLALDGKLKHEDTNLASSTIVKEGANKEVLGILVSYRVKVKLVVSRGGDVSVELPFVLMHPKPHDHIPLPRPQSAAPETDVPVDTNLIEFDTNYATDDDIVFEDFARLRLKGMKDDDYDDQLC

| SMILES | Emax [1] [%] | hS1P1 cAMP pEC50 [1] | Emax [2] [%] | hS1P1 B-arrestin2 pEC50 [2] |
| --- | --- | --- | --- | --- |
| COc1ccc(-c2noc(-c3ccc4c(c3)nnn4C3CCCCC3)n2)cc1C(F)(F)F [Compound 284, 1-cyclohexyl-5-{3-[4-methoxy-3-(trifluoromethyl)phenyl]-1,2,4-oxadiazol-5-yl}-1H-1,2,3-benzotriazole] | < 75 | <6.5 | < 75 | <5 |
| c1ccc(Oc2ccc(-c3noc(-c4ccc5c(c4)nnn5C4CC4)n3)cc2)cc1 [Compound 285, 1-cyclopropyl-5-[3-(4-phenoxyphenyl)-1,2,4-oxadiazol-5-yl]-1H-1,2,3-benzotriazole] | < 75 | <6.5 | < 75 | <5 |
| COc1ccccc1-c1noc(-c2ccc3c(c2)nnn3C(C)C)n1 [Compound 286, 5-(1-isopropyl-1H-benzo[d][1,2,3]triazol-5-yl)-3-(2-methoxyphenyl)-1,2,4-oxadiazole] | > 75 | >6.5 | > 75 | >5 |
| Cc1ccccc1-c1noc(-c2ccc3c(c2)nnn3CC2CC2)n1 [Compound 288, 1-(cyclopropylmethyl)-5-[3-(2-methylphenyl)-1,2,4-oxadiazol-5-yl]-1H-1,2,3-benzotriazole] | < 75 | <6.5 | < 75 | <5 |
| CC(C)Cn1nnc2cc(-c3nc(-c4ccccc4Cl)no3)ccc21 [Compound 289, 5-[3-(2-chlorophenyl)-1,2,4-oxadiazol-5-yl]-1-(2-methylpropyl)-1H-1,2,3-benzotriazole] |  | <6.5 |  | <5 |
| CC(C)n1nnc2cc(-c3noc(-c4ccc(C5CCCCC5)cc4)n3)ccc21 [Compound 290, 5-(4-cyclohexylphenyl)-3-(1-isopropyl-1H-benzo[d][1,2,3]triazol-5-yl)-1,2,4-oxadiazole] | < 75 | <6.5 | < 75 | <5 |
| CC1(C)CC(=O)c2cc(-c3nc(-c4ccncc4)no3)ccc2O1 [Compound 291, 2,2-dimethyl-6-[3-(pyridin-4-yl)-1,2,4-oxadiazol-5-yl]-3,4-dihydro-2H-1-benzopyran-4-one] | < 75 | <6.5 | < 75 | <5 |
| c1ccc(-c2noc(-c3ccc4c(c3)nnn4C3CCCCC3)n2)cc1 [Compound 292, 1-cyclohexyl-5-(3-phenyl-1,2,4-oxadiazol-5-yl)-1H-1,2,3-benzotriazole] | < 75 | <6.5 | < 75 | <5 |
| CC(C)n1nnc2cc(-c3nc(-c4ccccc4)co3)ccc21 [Compound 294, 5-(4-phenyl-1,3-oxazol-2-yl)-1-(propan-2-yl)-1H-1,2,3-benzotriazole] | < 75 | <6.5 | > 75 | <5 |
| c1cc(-c2noc(-c3ccc4c(c3)nnn4C3CC3)n2)ccn1 [Compound 295, 1-cyclopropyl-5-[3-(pyridin-4-yl)-1,2,4-oxadiazol-5-yl]-1H-1,2,3-benzotriazole] | > 75 | <6.5 | < 75 | <5 |
| CC(C)n1nnc2cc(-c3nc(-c4ccc(OCc5ccccc5)c(C(F)(F)F)c4)no3)ccc21 [Compound 296, 5-{3-[4-(benzyloxy)-3-(trifluoromethyl)phenyl]-1,2,4-oxadiazol-5-yl}-1-(propan-2-yl)-1H-1,2,3-benzotriazole] | < 75 | <6.5 | < 75 | <5 |
| CC(C)n1nnc2cc(-c3nc4c(o3)-c3ccccc3CC4)ccc21 [Compound 297, 5-{4H,5H-naphtho[2,1-d][1,3]oxazol-2-yl}-1-(propan-2-yl)-1H-1,2,3-benzotriazole] | > 75 | <6.5 | > 75 | <5 |
| O=C1CC2(CCCC2)Oc2ccc(-c3nc(-c4cccnc4)no3)cc21 [Compound 298, 6-[3-(pyridin-3-yl)-1,2,4-oxadiazol-5-yl]-3,4-dihydrospiro[1-benzopyran-2,1′-cyclopentane]-4-one] |  | <6.5 |  | >5 |
| COc1cccc(-c2nc(-c3ccc4c(c3)nnn4C(C)C)no2)c1 [Compound 299, 3-(1-isopropylbenzotriazol-5-yl)-5-(3-methoxyphenyl)-1,2,4-oxadiazole] | < 75 | <6.5 | > 75 | <5 |
| CCC1(CC)CC(=O)c2cc(-c3nnc(-c4ccccc4OC)o3)ccc2O1 [Compound 300, 2,2-diethyl-6-(5-(2-methoxyphenyl)-1,3,4-oxadiazol-2-yl)chroman-4-one] |  | <6.5 |  | <5 |
| CCC1(CC)CC(=O)c2cc(-c3nc(-c4ccc(OC)nc4)no3)ccc2O1 [Compound 301, 2,2-diethyl-6-[3-(6-methoxy-3-pyridyl)-1,2,4-oxadiazol-5-yl]chroman-4-one] | < 75 | <6.5 | < 75 | <5 |
| N#Cc1cc(-c2nc(-c3ccc4c(c3)CCC(=O)N4)no2)ccc1NCC1CC1 [Compound 302, 2-((cyclopropylmethyl)amino)-5-(3-(2-oxo-1,2,3,4-tetrahydroquinolin-6-yl)-1,2,4-oxadiazol-5-yl)benzonitrile] | > 75 | >6.5 | > 75 | >5 |
| CCC1(CC)CC(=O)c2cc(-c3nc(-c4cnccc4OC)no3)ccc2O1 [Compound 303, 2,2-diethyl-6-(3-(4-methoxypyridin-3-yl)-1,2,4-oxadiazol-5-yl)chroman-4-one] | > 75 | <6.5 | > 75 | <5 |
| CC(C)n1nnc2cc(-c3noc(-c4ccccc4F)n3)ccc21 [Compound 307, 5-(2-fluorophenyl)-3-(1-isopropyl-1H-benzo[d][1,2,3]triazol-5-yl)-1,2,4-oxadiazole] | > 75 | >6.5 | > 75 | >5 |
| Cc1ccccc1-c1noc(-c2ccc3nnn(C(C)C)c3c2)n1 [Compound 308, 6-[3-(2-methylphenyl)-1,2,4-oxadiazol-5-yl]-1-(propan-2-yl)-1H-1,2,3-benzotriazole] | < 75 | <6.5 | < 75 | <5 |
| CCC1(CC)CC(=O)c2cc(-c3nc(-c4cccnc4)ns3)ccc2O1 [Compound 309, 2,2-diethyl-6-(3-(pyridin-3-yl)-1,2,4-thiadiazol-5-yl)chroman-4-one] | > 75 | <6.5 | > 75 | <5 |
| CCC1(CC)CC(=O)c2cc(-c3nc(-c4cncc(O)c4)no3)ccc2O1 [Compound 310, 2,2-diethyl-6-[3-(5-hydroxy-3-pyridyl)-1,2,4-oxadiazol-5-yl]chroman-4-one] | > 75 | >6.5 | > 75 | >5 |
| CCC1(CC)CC(=O)c2cc(-c3nc(-c4cncc(OC)c4)no3)ccc2O1 [Compound 311, 2,2-diethyl-6-(3-(5-methoxypyridin-3-yl)-1,2,4-oxadiazol-5-yl)chroman-4-one] |  | <6.5 |  | <5 |
| CCC1(CC)CC(=O)c2cc(-c3nc(-c4ccncc4O)no3)ccc2O1 [Compound 312, 2,2-diethyl-6-(3-(3-hydroxypyridin-4-yl)-1,2,4-oxadiazol-5-yl)chroman-4-one] | > 75 | <6.5 | > 75 | <5 |
| CCC1(CC)CC(=O)c2cc(-c3nc(-c4ccncc4C(F)(F)F)no3)ccc2O1 [Compound 313, 2,2-diethyl-6-(3-(3-(trifluoromethyl)pyridin-4-yl)-1,2,4-oxadiazol-5-yl)chroman-4-one] | > 75 | >6.5 | > 75 | <5 |
| CCC1(CC)CC(=O)c2cc(-c3nc(-c4ccnc(C(F)(F)F)c4)no3)ccc2O1 [Compound 314, 2,2-diethyl-6-(3-(2-(trifluoromethyl)pyridin-4-yl)-1,2,4-oxadiazol-5-yl)chroman-4-one] | < 75 | <6.5 | < 75 | <5 |
| CCC1(CC)CC(=O)c2cc(-c3nc(-c4ccnc(C)c4)no3)ccc2O1 [Compound 315, 2,2-diethyl-6-(3-(2-methylpyridin-4-yl)-1,2,4-oxadiazol-5-yl)chroman-4-one] | > 75 | >6.5 | < 75 | >5 |
| CC(=O)Nc1ccc(-c2noc(-c3ccc(NC(C)C)c(C#N)c3)n2)cc1 [Compound 316, N-(4-(5-(3-cyano-4-(isopropylamino)phenyl)-1,2,4-oxadiazol-3-yl)phenyl)acetamide] | > 75 | >6.5 | < 75 | <5 |
| CC(C)n1ccc2cc(-c3nc(-c4ccccc4Cl)no3)ccc21 [Compound 320, 3-(2-chlorophenyl)-5-(1-isopropyl-1H-indol-5-yl)-1,2,4-oxadiazole] | > 75 | >6.5 | > 75 | >5 |
